Laboratory results taken from publication PMC11855478, “Bicyclic N,S-Acetals Containing Fused Cysteine-Amide System as New Heterocyclic Class Targeting Human Farnesyltransferase (FTase-h)” (International Journal of Molecular Sciences, 2025).

What was measured:
HL-60(TB) (Leukemia) = experiment: NCI one dose, HL-60(TB); assay type: cell-based, human; settings: 1.00E-5 Molar one dose
Description: (§1) 3.4. Cell Proliferation Assay
(§2) Selected compounds were tested on a panel of 60 human cancer cell lines at the National Cancer Institute (NCI), Germantown, MD, USA. The cytotoxicity studies were conducted using a 48 h exposure protocol using the sulfo-rhodamine B assay.

[1] = tested on: NCI-H226 (Non-Small Cell Lung Cancer); experiment: NCI one dose, NCI-H226; assay type: cell-based, human; settings: NCI-H226, 1.00E-5 Molar one dose
Description: as §1, §2

Compound | Growth Percent (HL-60(TB) (Leukemia)) | Growth Percent [1]
O=C(NCc1ccccc1)[C@@H]1CS[C@H]2c3ccccc3C(=O)N12 [4aA] | 102.43% | 86.94%
O=C(NCc1ccccc1C(F)(F)F)[C@@H]1CS[C@H]2c3ccccc3C(=O)N12 [4aC] | 101.08% | 95.46%
O=C(NCc1cccc(C(F)(F)F)c1)[C@@H]1CS[C@H]2c3ccccc3C(=O)N12 [4aD] | 96.47% | 100.68%
COc1ccc(CNC(=O)[C@@H]2CS[C@H]3c4ccccc4C(=O)N23)cc1 [4aF] | 97.30% | 101.53%
COc1cc(CNC(=O)[C@@H]2CS[C@H]3c4ccccc4C(=O)N23)cc(OC)c1OC [4aJ] | 96.47% | 97.62%
O=C(NCc1ccc(Cl)cc1Cl)[C@@H]1CS[C@H]2c3ccccc3C(=O)N12 [4aH] | 93.16% | 95.83%
